Holding throughout (type): cell-based, human
In one experiment the test system is MDA-MB-231. Nature of the experiment: WST-1 cytotoxicity, MDA-MB-231. Here is the method: (§1) Cancer and normal cell lines were purchased from ATCC and stored in liquid nitrogen. HT-29 (colon adenoma cancer), HeLa (cervix adenoma cancer cell), MDA-MB-231 (breast adenoma cancer cell) and HEK-293 (embryonic kidney epithelial cell), PNT-1A (normal prostate cells) cell lines were incubated in DMEM: F-12 and RPMI-1640, including 10% Foetal Bovine Serum (FBS), 100 μg/mL streptomycin/100 IU/mL penicillin, at 37 °C in an incubator containing 5% CO2, 95% air in a humid atmosphere.
(§2) The cytotoxic effects of the substances were evaluated with WST-1 kits (Roche, Germany) in accordance with the manufacturer’s protocols. The cells were plated on 96-well plates (10^4 cells in each well). After incubation for 24 h, the media were discarded and the substances and Cisplatin as the control drug, at doses of 0, 2.5, 5, 10, 25, 50, 100, and 200 μM, were incubated for 24, 48, and 72 h. WST-1 reactive of 10 µl was added to all wells. Following 4 h incubation, the measurements were taken on a plate reader (Spectramax M5) at wavelengths of 450 and 630 nm. Graphs were then created and the IC50 value of each substance was calculated.

The subject of a further experiment is HEK-293. As to the kind of experiment: WST-1 cytotoxicity, HEK-293 normal cells. Particulars: HEK-293 normal cell. The method, then:
as §1, §2
(Tetrazolium assays rely on reduction of a dye to a coloured formazan, in cell work by metabolically active cells.)

The subject of a further experiment is HT-29. As to the kind of experiment: WST-1 cytotoxicity, HT-29. Here is the method:
as §1, §2

A further experiment concerns HeLa. Nature of the experiment: WST-1 cytotoxicity, HeLa. The method, then: as §1, §2
In a further experiment the test system is PNT-1A. Nature of the experiment: WST-1 cytotoxicity, PNT-1A normal cells. The note with it: PNT-1A normal cell. Here is the method:
as §1, §2

The text below walks through data of PMC6211230, “Assessment of the antiproliferative and apoptotic roles of sulfonamide carbonic anhydrase IX inhibitors in HeLa cancer cell line” (Journal of Enzyme Inhibition and Medicinal Chemistry, 2018).

The structures appear in SMILES notation.

As usually defined, the IC50 is the concentration needed to halve the response being measured. The low end stands for greater potency in that assay, the high end for weaker potency in that assay.

Turning to `NS(=O)(=O)c1ccc(CCNCc2ccccc2O)cc1` [Compound B-3], the 50% inhibitory concentration (IC50) is 345 µM in the experiment with MDA-MB-231 (MDA-MB-231, 24 h); 234 µM in the experiment on MDA-MB-231 (MDA-MB-231, 48 h); 126 µM with MDA-MB-231 (MDA-MB-231, 72 h); 179 µM with HEK-293 (24 h); 120 µM with HEK-293 (48 h); 45.4 µM in the experiment with HEK-293 (72 h). Besides, the IC50 in the experiment on HT-29 (HT-29, 24 h) came to 560 µM; in the experiment on HT-29 (HT-29, 48 h) it was 450 µM; with HT-29 (HT-29, 72 h) it was 210 µM; in the experiment on HeLa (24 h), 156 µM; with HeLa (48 h), 134 µM; with HeLa (72 h), 45.4 µM. Besides, the figures for the concentration for half-maximal inhibition (IC50) in the experiment with PNT-1A (24 h), in the experiment with PNT-1A (48 h) and in the experiment on PNT-1A (72 h) were 100 µM, 89.4 µM and 70.4 µM, respectively.
In the case of `NS(=O)(=O)c1ccc(CCNCc2cc(Cl)ccc2O)cc1` [Compound B-1], the IC50 with MDA-MB-231 (MDA-MB-231, 24 h) worked out at 492 µM; with MDA-MB-231 (MDA-MB-231, 48 h), 595 µM; in the experiment with MDA-MB-231 (MDA-MB-231, 72 h) it was 243 µM; in the experiment with HEK-293 (24 h), 324 µM; in the experiment with HEK-293 (48 h) it was 207 µM; in the experiment on HEK-293 (72 h) it was 63.7 µM. The IC50 in the experiment with HT-29 (HT-29, 24 h) came out at 606 µM; in the experiment on HT-29 (HT-29, 48 h), 63.8 µM; in the experiment with HT-29 (HT-29, 72 h) it was 91.8 µM; in the experiment with HeLa (24 h), 218 µM; in the experiment on HeLa (48 h), 112 µM; with HeLa (72 h), 98.9 µM. Further, the concentration for half-maximal inhibition (IC50) in the experiment on PNT-1A (24 h) came out at 593 µM; with PNT-1A (48 h) it was 190 µM; in the experiment on PNT-1A (72 h), 372 µM.
As to `NS(=O)(=O)c1ccc(CCN=Cc2cc(Cl)cc(Cl)c2O)cc1` [Compound A-2], the half-maximal inhibitory concentration (IC50) in the experiment on MDA-MB-231 (MDA-MB-231, 24 h) stood at 125 µM; with MDA-MB-231 (MDA-MB-231, 48 h), 145 µM; with MDA-MB-231 (MDA-MB-231, 72 h), 100 µM; in the experiment with HEK-293 (24 h), 120 µM; in the experiment with HEK-293 (48 h), 100 µM; with HEK-293 (72 h), 65.4 µM. Moreover, the IC50 with HT-29 (HT-29, 24 h) turned out to be 234 µM; in the experiment with HT-29 (HT-29, 48 h), 254 µM; in the experiment with HT-29 (HT-29, 72 h), 134 µM; with HeLa (24 h), 345 µM; in the experiment with HeLa (48 h) it was 300 µM; with HeLa (72 h), 123 µM. The IC50 with PNT-1A (24 h) came to 167 µM; in the experiment on PNT-1A (48 h) it was 170 µM; in the experiment on PNT-1A (72 h), 100 µM.
`NS(=O)(=O)c1ccc(CCNCc2cc(Cl)cc(Cl)c2O)cc1` [Compound B-2]: the half-maximal inhibitory concentration (IC50) worked out at 145 µM in the experiment with MDA-MB-231 (MDA-MB-231, 24 h); 43.3 µM in the experiment with MDA-MB-231 (MDA-MB-231, 48 h); 54.3 µM with MDA-MB-231 (MDA-MB-231, 72 h); 230 µM in the experiment on HEK-293 (24 h); 215 µM in the experiment with HEK-293 (48 h); 120 µM with HEK-293 (72 h). Further, the 50% inhibitory concentration (IC50) in the experiment with HT-29 (HT-29, 24 h) is 356 µM; in the experiment on HT-29 (HT-29, 48 h), 200 µM; in the experiment on HT-29 (HT-29, 72 h), 155 µM; in the experiment with HeLa (24 h), 234 µM; with HeLa (48 h), 212 µM; with HeLa (72 h) it was 154 µM. The half-maximal inhibitory concentration (IC50) with PNT-1A (24 h) is 55.4 µM; in the experiment on PNT-1A (48 h) it was 23.2 µM; in the experiment on PNT-1A (72 h), 12.3 µM.
On to `N.N.[Cl][Pt][Cl]` [Cisplatin, reference compound], for which the IC50 in the experiment with MDA-MB-231 (MDA-MB-231, 24 h) amounted to 21.2 µM; with MDA-MB-231 (MDA-MB-231, 48 h), 10.2 µM; in the experiment on MDA-MB-231 (MDA-MB-231, 72 h), 7 µM; in the experiment with HEK-293 (24 h) it was 29.6 µM; with HEK-293 (48 h) it was 14 µM; with HEK-293 (72 h) it was 2 µM. For the same compound, the concentration for half-maximal inhibition (IC50) in the experiment with HT-29 (HT-29, 24 h) came to 23.7 µM; with HT-29 (HT-29, 48 h) it was 20 µM; in the experiment on HT-29 (HT-29, 72 h), 16.3 µM; with HeLa (24 h), 28.9 µM; in the experiment with HeLa (48 h) it was 7.6 µM; in the experiment with HeLa (72 h), 6.1 µM. Further, the concentration for half-maximal inhibition (IC50) with PNT-1A (24 h) worked out at 13.4 µM; in the experiment with PNT-1A (48 h) it was 11.4 µM; in the experiment with PNT-1A (72 h) it was 8.2 µM.
Turning to `NS(=O)(=O)c1ccc(CCN=Cc2ccccc2O)cc1` [Compound A-3], the IC50 in the experiment on MDA-MB-231 (MDA-MB-231, 24 h) was 98.5 µM; with MDA-MB-231 (MDA-MB-231, 48 h), 80.5 µM; in the experiment on MDA-MB-231 (MDA-MB-231, 72 h), 65.4 µM; with HEK-293 (24 h) it was 98.4 µM; in the experiment with HEK-293 (48 h) it was 65.4 µM; in the experiment on HEK-293 (72 h) it was 32.2 µM. Also, the IC50 in the experiment with HT-29 (HT-29, 24 h) came to 143 µM; with HT-29 (HT-29, 48 h), 100 µM; in the experiment with HT-29 (HT-29, 72 h), 87.4 µM; in the experiment with HeLa (24 h) it was 123 µM; with HeLa (48 h) it was 112 µM; with HeLa (72 h), 76.5 µM. For the same compound, the values for the IC50 with PNT-1A (24 h), in the experiment with PNT-1A (48 h) and in the experiment with PNT-1A (72 h) were 45.4 µM, 43.3 µM and 23.3 µM, respectively.
